# Test results taken from patent US4663456A, “2-(substituted piperazinylalkyl)β-carbolines useful in treatment of psychological disorders” (American Home Products Corporation, priority 1985, dated 1987).
# Experiments:
# limbic D-2 = molecular target: T1, limbic D-2 (Rattus norvegicus, UniProt P61169); experiment: limbic D-2 binding (3H-spiroperidol, homogenized limbic brain tissue)
# T1 construct: from tissue; host or cells: homogenized limbic brain tissue
# Protocol: Binding in the presence of the test compound is expressed as a percent of specific binding (total binding less binding in the presence of 1 μM (+)butaclamol). An inhibition constant (Ki) is calculated for each test compound to catagorize its limbic D-2 binding potential. The larger the number, the less potential for dopamine receptor binding and attendant side effects from administration of the antipsychotic agent.
# [1] = test system: conditioned avoidance responding in trained male CD rats; experiment: conditioned avoidance lever response test (block of avoidance responding, i.p.); assay type: in vivo, male CD rats (Charles River); settings: Rattus norvegicus, ip, from dose-effect regression line, read-out: AB50 (50% block in avoidance responding)
# Source text: The antipsychotic properties of the compounds of this invention were established by standard pharmacologically accepted procedures involving conditioned avoidance studies in which trained male CD rats (Charles River), 400-450 gm body weight are exposed to a fifteen second warning tone (conditioned stimulus) continued for an additional fifteen seconds accompanied by electric shock. The rat can avoid the electric shock by depression of a response lever (lever-response). A response during the initial warning tone is considered an avoidance response. The avoidance response is determined and expressed as a percentage of total trials from an appropriate number of trials and a 50% block in avoidance responding (AB50) is obtained from a dose-effect regression line. All the data is based upon (mg/kg) dosing of the animals.
# T1 sequence (P61169 whole entry): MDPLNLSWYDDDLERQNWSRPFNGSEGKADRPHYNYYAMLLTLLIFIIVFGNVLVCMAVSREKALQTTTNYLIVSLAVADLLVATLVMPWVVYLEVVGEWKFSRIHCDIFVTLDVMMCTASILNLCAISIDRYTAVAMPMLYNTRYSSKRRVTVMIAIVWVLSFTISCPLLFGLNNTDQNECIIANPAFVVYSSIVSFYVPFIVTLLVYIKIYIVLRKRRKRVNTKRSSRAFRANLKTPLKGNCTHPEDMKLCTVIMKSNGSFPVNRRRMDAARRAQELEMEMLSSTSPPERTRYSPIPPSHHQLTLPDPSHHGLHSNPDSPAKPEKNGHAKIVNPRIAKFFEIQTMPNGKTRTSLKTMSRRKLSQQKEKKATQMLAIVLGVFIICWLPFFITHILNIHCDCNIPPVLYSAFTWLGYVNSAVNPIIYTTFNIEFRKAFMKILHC
Compound,Ki (limbic D-2; bound) [µM],"percent, limbic D-2 binding (limbic D-2; concentration not given) [%]",ED50 [1] [mg/kg]
"C[C@@H]1CN(CCCN2CCc3c([nH]c4ccccc34)C2)C[C@@H](C)N1 (relative stereo) [Example 3, 2-[3-(trans-3,5-Dimethyl-1-piperazinyl)propyl]-2,3,4,9-tetrahydro-1H-pyrido[3,4-b]indole]",> 5,38,
"c1cnc(N2CCN(CCCN3CCc4c([nH]c5ccccc45)C3)CC2)nc1 [Example 1, 2,3,4,9-Tetrahydro-2-[3-[4-(2-pyrimidinyl)-1-piperazinyl]propyl]-1H-pyrido[3,4-b]indole]",,,34.7
